Blank lines part the entries; values can stand above or below the molecule they belong to. Where a SMILES comes first, the peptide text is derived from it. [ ]: non-standard residue; d: D form. The star is where a group is joined. Sta = CC(C)C[C@H](N)[C@@H](O)CC(=O)O; Isovaleryl = CC(C)CC(=O)*; Cbz = O=C(OCc1ccccc1)*; CH2F = FC*
What was measured:
lysosomes of DU145 cells = assay: Lysosomal stability assay (LysoTracker Red); format: cell-based, human; conditions: DU145 cells, 1 hour; LCL204 10 μM, C6-ceramide 30 μM, B13 20 μM
Method: Lysosoinal stability assay. Lysosomal stability was measured using the fluorescent dye LysoTracker Red (LTR). Cells were seeded overnight in 60 mm plates. The next day, medium was removed and replaced with medium containing 200 nM LTR. Cells were loaded with LTR for 30 minutes at 37° C. LTR was removed and cells were washed once with PBS, then medium containing the treatment was added for the indicated time. After treatment, cells were lifted with trypsin, washed once in PBS, and resuspended in 0.5 mL growth medium. LTR fluorescence was measured using FACS analysis (564-606 nm) as above. A decrease in fluorescence intensity corresponded to an increase in lysosomal pH, and a minimum of 10,000 events were scored for each sample.

acid ceramidase (AC) = target: T1, acid ceramidase (AC) (Homo sapiens, UniProt Q13510); assay: Immunoblot of acid ceramidase protein; format: cell-based; conditions: DU145 cells, one hour pretreatment, then LCL204 10 μM 6 hours
T1 construct: endogenous in cells
T1 sequence (Q13510 22-395): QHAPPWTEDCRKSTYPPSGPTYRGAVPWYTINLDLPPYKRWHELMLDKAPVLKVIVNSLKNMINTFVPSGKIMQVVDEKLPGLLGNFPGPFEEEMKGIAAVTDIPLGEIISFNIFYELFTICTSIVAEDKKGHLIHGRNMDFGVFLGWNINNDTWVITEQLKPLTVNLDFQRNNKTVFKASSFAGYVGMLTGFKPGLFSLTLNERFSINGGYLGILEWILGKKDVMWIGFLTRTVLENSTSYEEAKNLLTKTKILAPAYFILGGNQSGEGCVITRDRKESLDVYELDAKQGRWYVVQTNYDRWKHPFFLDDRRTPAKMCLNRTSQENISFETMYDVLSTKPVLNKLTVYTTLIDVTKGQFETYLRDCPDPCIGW
Method: (§1) Immunoblot analysis. Cells were seeded in 60mm plates as described above and treated accordingly. Cells were lifted by gently scraping the plates, washed once with ice cold PBS and then lysed in lysis buffer (PBS, 1% Triton X-100, 10% glycerol) containing protease inhibitors pepstatin A (0.5 μg/ml), leupeptin (0.5 μg/ml), aprotinin (5 μg/ml), and PMSF (100 μg/ml) for 10 minutes on ice. Insoluble material was removed by centrifugation at 14,000 rpm for 15 minutes at 4° C. The supernatants were then supplemented with SDS at a final concentration of 2% and stored at −80° C. Protein concentrations were determined using the DC Protein Assay (BioRad Laboratories; Hercules, CA, USA) according to the manufacturer's instructions. 50 μg of protein per sample (unless otherwise indicated) were separated on NuPAGE 4-12% Bis-Tris gels (Invitrogen; Carlsbad, CA, USA) and transferred to nitrocellulose membranes (BioRad). Following transfer, membranes were blocked for 1 hour at room temperature in Tris-buffered saline (TBS) containing 0.1% Tween-20 and 5% nonfat dry milk and incubated overnight at 4° C. with primary antibody at a dilution of 1:2,000(actin), 1:1,000(cytochrome c, COX IV, Bax, Bak, p53, p38, P-p38), 1:500(P-JNK, JNK), 1:250 (AC, p73), or 1:400(LAMP-1, cathepsin B). Overnight incubations were performed in 5% milk in TBS-Tween. Following overnight incubation, membranes were washed three times for 10 minutes each in TBS-Tween and incubated for 1 hour at room temperature with secondary antibody in 5% milk TBS-Tween at a dilution 1:5,000 (goat anti-mouse IgG) or 1:50,000 (goat anti-rabbit). Membranes were then washed three times more and incubated for 5 minutes at room temperature with Super Signal HRP substrate (Pierce Biotechnology Inc.; Rockford, IL, USA).

ASMase = target: T2, ASMase (Homo sapiens, UniProt P17405); assay: Acid sphingomyelinase activity assay; format: cell-based; conditions: DU145 cells, 2-hour LCL204 treatment
T2 construct: DU145 cells were lysed in 50 mM Tris (pH=7.4) using a probe sonicator; endogenous in cells; host or cells: DU145 (lysate of treated cells)
T2 sequence (P17405 47-631): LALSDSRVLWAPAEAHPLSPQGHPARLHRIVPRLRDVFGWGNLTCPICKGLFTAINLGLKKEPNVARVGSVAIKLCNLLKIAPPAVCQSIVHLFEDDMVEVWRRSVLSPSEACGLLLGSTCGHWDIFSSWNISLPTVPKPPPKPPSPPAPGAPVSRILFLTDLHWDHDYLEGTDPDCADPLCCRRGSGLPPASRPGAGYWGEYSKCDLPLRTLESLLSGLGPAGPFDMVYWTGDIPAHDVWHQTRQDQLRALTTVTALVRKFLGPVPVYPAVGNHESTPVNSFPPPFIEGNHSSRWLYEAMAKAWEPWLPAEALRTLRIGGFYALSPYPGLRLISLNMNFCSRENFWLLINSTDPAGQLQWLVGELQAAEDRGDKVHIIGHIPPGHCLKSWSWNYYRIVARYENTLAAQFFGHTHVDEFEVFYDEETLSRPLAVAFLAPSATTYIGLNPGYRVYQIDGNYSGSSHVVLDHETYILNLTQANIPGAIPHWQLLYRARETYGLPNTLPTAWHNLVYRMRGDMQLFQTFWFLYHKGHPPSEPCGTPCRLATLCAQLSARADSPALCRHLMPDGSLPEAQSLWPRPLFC
Method: Acid Sphingomyelinase Activity Assay. DU145 cells were lysed in 50 mM Tris (pH=7.4) using a probe sonicator. Cellular debris was removed after centrifugation at 3000×g for 10 minutes. Proteins (50 μg) were adjusted to a total volume of 100 μl and the reaction was started by adding 100 μl of the reaction mixture containing 1 mM EDTA, 250 mM sodium acetate (pH 5.0), 100 μM [choline-methyl-^14C] sphingomyelin and 0.1% Triton X. After incubation at 37° C. for one hour, the reaction was stopped by adding 1.5 ml of chloroform/methanol (2:1) and then 200 μl of water. Phases were separated by centrifugation at 2000×g for 5 minutes. Quantitation of the amount of released radioactive phosphocholine was determined by subjecting 400 μl of the upper phase to scintillation counting.

L929 cells = assay: TNFα-induced PGE2 release; format: cell-based; conditions: TNFα-treated L929 mouse fibroblast cells, preliminary data
Text: Interleukin-1 is a major inducer of inflammation and TNF is an important regulator of the reaction. Both cytokines can activate ceramidase, and thus inhibiting the activity of ceramidase can result in an anti-inflammatory effect. This may involve the prevention of the formation of sphingosine and sphingosine phosphate which have pro-inflammatory effects. Also, inhibition of ceramidase may prevent the hyperproliferation of immune cells that are important for inflammation. […] The release of PGE2 is also shown to be inhibited by D-(N-myristolyamino)-1-phenyl-1-propanol), D-MAPP, which is an inhibitor of one of the ceramidase. This observation may be important for inhibiting inflammatory reactions that occur in conditions, such as but not limited to rheumatoid arthritis. Thus, it is possible to treat or prevent inflammation by regulating the level of cellular ceramide using the method of the invention. As discussed above, ceramide level can be increased by administering compounds of the present invention that can inhibit mitochondrial ceramidase.

DU145 cells [1] = assay: Effect of doxorubicin on apoptotic resistance of DU145 cells; format: cell-based, human; conditions: 0.2 μg/ml
Text: The viruses described in Rubinchik et al. had been used under in vivo conditions to treat prostate cancer xenografts. […]. […] One of the limitations in PCa gene therapy is delivery of the therapeutic gene to every cell in the tumor. One way to overcome this is to amplify the response to the delivered gene by taking advantage of the bystander effect. For example, virally-expressed wild-type p53 is capable of inducing apoptosis in many types of cancer cells and is reported to have bystander activity by inducing localized FasL expression which recruits neutrophils infiltration that is believed to play a critical role in the bystander mechanism. In practice, the bystander effect, if activated , will result in regression of a solid tumor in spite of the physician's inability to deliver, by virus or liposome, a therapeutic gene to every cell. […] In the DU145 model of prostate cancer, the inventors determined that resistance to the induction of apoptosis through the Fas receptor signaling pathway is due to overexpression of apoptotic resistance genes including cFLIPs (Hyer et al., Cancer Biology and Therapy 1(4): 405-410, 2002). […] However, expression of apoptotic resistance genes in some cancers, including in the DU145 model, make the cells relatively insensitive to vesicle-mediated bystander activity. To overcome this, a number of different chemotherapeutic drugs and other small molecules were examined for their effect on apoptotic resistance mechanisms. […] This decrease in protein levels may be due to proteasomal degradation or a translational block. Under these conditions, a 20% increase in sensitivity of apoptotic vesicles is observed with 0.2 μg/ml doxorubicin. […]

DU145 cells [2] = assay: Cell death by MTS assay, ceramide analog combined with AdGFPFasL virus; format: cell-based, human
Method: LCL102, a ceramidase inhibitor, which acts to increasing intracellular ceramide levels by […], were tested in this system. This molecule was highly efficient at activating cell death in DU145 cells at nontoxic doses if combined with AdGFPFasL virus at MOIs achievable in vivo. DU145 cells growing in 96 well plates at 1×10^4 cells/well are treated with either media alone or LCL102 at 2 uM for 48 hours followed by AdGFPFasL for 24 hours at the MOI (5-80). Cell death is assayed by the MTS assay. At 2 uM LCL102 and 5MOI of virus, cell death is amplified 4-fold compared to LCL102 alone (FIG. 14).

DU145 cells [3] = assay: MTS cell viability assay in DU145 cells; format: cell-based, human; conditions: for reproduction of the apoptotic consequences of LCL204-induced lysosomal rupture: agents that strictly alter lysosomal pH
Method: MTS cytotoxicity assays for LCL204 treatments. Cell viability was determined using the CellTiter 96 AQueous One Solution Cell Proliferation Assay (Promega; Madison, Wis., USA). 1×10^4 cells per well were seeded in 96-well plates overnight. The next day media was removed and replaced with either 100 μl media with vehicle control or media containing LCL204 at desired concentrations. Assays were carried out according to manufacturer's instruction as previously described (60). For experiments using enzyme inhibitors and LCL204, media was removed and replaced with 50 μl media containing vehicle only or indicated inhibitor. Cells were pretreated 1 hour at 37° C. before adding 50 μl media containing vehicle, inhibitor only, LCL204 only (2× concentration), or a combination. The remainder of the assay was carried out as described above.

PUMA = assay: Immunoblot of PUMA; format: cell-based, human; conditions: PPC-1/pcDNA3 cells, 40 μM SP600125 with LCL204
Method: as §1

SMILES: CCCCCCCCCCCCCC(=O)N[C@H](CO)[C@H](O)c1ccc([N+](=O)[O-])cc1 [B13, reference compound]
shift in LTR fluorescence (rise in lysosomal pH) (lysosomes of DU145 cells): did not have this effect

SMILES: CCCCCCCCCCCCC/C=C/[C@@H](O)[C@H](CO)NC(=O)CCCCC [C6-ceramide, reference compound]
shift in LTR fluorescence (rise in lysosomal pH) (lysosomes of DU145 cells): did not have this effect

effect of protease inhibitor pretreatment on LCL204-induced AC protein loss (acid ceramidase (AC)): blocked AC degradation
effect on LCL204-induced loss of ASMase activity (ASMase): loss of activity was blocked
SMILES: CCCNC(=O)[C@H]1O[C@@H]1C(=O)N[C@H](C(=O)N1CCC[C@H]1C(=O)OC)[C@@H](C)CC [CA074Me, reference compound]

SMILES: CCCCCCCCCCCCCC(=O)NC(C)C(O)c1ccccc1 [D-MAPP]
release of PGE2 (L929 cells): inhibited

SMILES: COc1cccc2c1C(=O)c1c(O)c3c(c(O)c1C2=O)C[C@@](O)(C(=O)CO)C[C@@H]3O[C@H]1C[C@H](N)[C@H](O)[C@H](C)O1 [Doxorubicin]
cFLIP protein expression (DU145 cells [1]): decreases expression of cFLIP protein
increase in sensitivity of apoptotic vesicles (DU145 cells [1]): 20%
toxicity to DU145 cells (DU145 cells [1]): toxic to DU145 cells at 48-72 hours

SMILES: CCCCCCCCCCCCCCN[C@H](CO)[C@H](O)c1ccc([N+](=O)[O-])cc1 [LCL102, (1R,2R)-2-N-Tetradecylamino-1-(4-nitro-phenyl)-1,3-propandiol]
amplification of cell death compared to LCL102 alone (DU145 cells [2]; 2 uM for 48 hours, then AdGFPFasL 5MOI for 24 hours): 4 fold
increase of the ability of AdGFPFasL to kill tumor cells (DU145 cells [2]; in vitro, subtoxic doses): as much as ten-fold

SMILES: CC(C)C[C@@H](C=O)NC(=O)[C@H](CC(C)C)NC(=O)[C@H](CC(C)C)NC(=O)OCc1ccccc1 [MG132] (Cbz-Leu-Leu-Leu-aldehyde)
effect of protease inhibitor pretreatment on LCL204-induced AC protein loss (acid ceramidase (AC)): blocked AC degradation

SMILES: Cl.N [NH4Cl]
reproduction of the apoptotic consequences of LCL204-induced lysosomal rupture (DU145 cells [3]): could not be reproduced

SMILES: Oc1c2ccccc2c2c3c(cccc13)N=N2 [SP600125, reference compound]
time until which LCL204-induced PUMA induction was delayed (PUMA): approximately 6 hours

SMILES: CO/C1=C\C(C)=C\[C@@H](C)[C@@H](O)[C@@H](C)C/C(C)=C/C=C/[C@H](OC)[C@@H]([C@@H](C)[C@@H](O)[C@H](C)[C@@]2(O)C[C@@H](O)[C@H](C)[C@@H](C(C)C)O2)OC1=O [bafilomycin A1]
reproduction of the apoptotic consequences of LCL204-induced lysosomal rupture (DU145 cells [3]): could not be reproduced

SMILES: CC(C)CC(=O)N[C@H](C(=O)N[C@H](C(=O)N[C@@H](CC(C)C)[C@@H](O)CC(=O)N[C@@H](C)C(=O)N[C@@H](CC(C)C)[C@@H](O)CC(=O)O)C(C)C)C(C)C [pepstatin A] (Isovaleryl-VV[Sta]A[Sta]-OH)
effect of protease inhibitor pretreatment on LCL204-induced AC protein loss (acid ceramidase (AC)): no effect

SMILES: COC(=O)C[C@H](NC(=O)[C@H](C)NC(=O)[C@@H](NC(=O)OCc1ccccc1)C(C)C)C(=O)CF [zVAD-fmk] (Cbz-Val-Ala-Asp(OMe)-CH2F)
LCL204-mediated cell death after pre-treatment with caspase inhibitor (DU145 cells [3]; pre-treated one hour, then LCL204 24 hours, especially below 15 μM LCL204): cell death was substantially reduced
effect of protease inhibitor pretreatment on LCL204-induced AC protein loss (acid ceramidase (AC)): blocked AC degradation

Reference: patent US8592419B2, “Ceramides and apoptosis-signaling ligand” (MUSC Foundation for Research Development, priority 2004, dated 2013)
